Test results from paper PMC6882468 (Journal of Enzyme Inhibition and Medicinal Chemistry, 2019).

Experiments:
[1] = target: p38α MAPK (Homo sapiens, UniProt Q16539); experiment: p38α MAPK inhibition assay in vitro; assay type: biochemical; conditions: triplicate, read-out: IC50 p38p
Description: In brief, after mixing the enzyme reagent with the sample, a reaction mixture containing 200 µM biotin-peptide substrate and 600 µM ATP (+100 µCi/mL γ-^32 P-ATP) was added to initiate the reaction. […] Part of the reaction solution was transferred to the well of a streptavidin-coated flash plate, washed in PBS containing 0.01% Tween and sealed. The average value of counts per minute for each group and the IC50 value was calculated.
The average fluorescence values of each well were calculated and recorded as RFU (Relative Fluorescence Unit) blank control (RFU blank), RFU 100% enzyme activity control (RFU enzyme), RFU positive drug control (RFU drug) and RFU test compound (RFU compound). The inhibition rate is calculated according to the following formula. Inhibition rate (%)= (RFU (enzyme) – RFU (compound/drug) […]) /(RFU (enzyme) – RFU (blank)) * 100%
The IC50 value of the test compound was calculated by the concentration-inhibition reaction curve and the assays were performed in triplicate.

[2] = target: T1, COX-1 (Ovis aries, UniProt P05979); experiment: COX-1 inhibition assay in vitro (COX Inhibitor Screening Kit, fluorometric); assay type: biochemical
T1 construct: purchased BioVision, Inc
T1 sequence (P05979 25-600): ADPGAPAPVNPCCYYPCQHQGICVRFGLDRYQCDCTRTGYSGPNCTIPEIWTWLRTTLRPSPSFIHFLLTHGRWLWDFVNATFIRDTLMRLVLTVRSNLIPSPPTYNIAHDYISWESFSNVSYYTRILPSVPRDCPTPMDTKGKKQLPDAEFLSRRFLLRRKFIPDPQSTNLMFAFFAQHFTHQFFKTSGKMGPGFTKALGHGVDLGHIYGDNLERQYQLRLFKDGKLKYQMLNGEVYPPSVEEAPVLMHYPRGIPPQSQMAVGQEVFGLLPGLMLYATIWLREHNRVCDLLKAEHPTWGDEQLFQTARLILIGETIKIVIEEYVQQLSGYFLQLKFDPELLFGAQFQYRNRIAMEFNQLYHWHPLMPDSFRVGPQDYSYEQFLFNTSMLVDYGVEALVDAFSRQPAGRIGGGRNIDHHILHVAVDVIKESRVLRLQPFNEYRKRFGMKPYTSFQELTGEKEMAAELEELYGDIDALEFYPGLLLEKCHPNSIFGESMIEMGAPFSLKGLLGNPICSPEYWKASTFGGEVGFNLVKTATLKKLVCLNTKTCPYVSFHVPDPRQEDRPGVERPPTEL
Description: Simply, different concentrations of the test compound solution were added to the mixed solution containing COX-1/COX-2 enzyme (10 µL) and Assay Buffer (960 µL, 0.1 M Tris-HCl pH 8.0 containing 5 µM EDTA and 2 µM phenol). […] The IC50 values were calculated as described above.

[3] = tested on: RAW 264.7 cells; experiment: Cell viability assay (MTT); assay type: cell-based, Murine; conditions: RAW264.7 cells, concentrations ranging from 5 to 50 µM, 24 h
Description: Murine RAW 264.7 macrophages were obtained from the American Type Culture Collection (ATCC, USA). The cells were incubated in DMEM media supplemented with 10% FBS, 100 U/mL penicillin and […] streptomycin at 37 °C with 5% CO2. Cell viability was assessed using the MTT assay. RAW 264.7 cells were inoculated in 96-well plate at a density of 1.0 × 10^5 cells per well. After incubated for 24 h, the cells were treated with various concentrations of the compound. After an additional 24-h incubation, 20 µL of 0.5 mg/mL MTT reagent was added to wells and incubated for another 4 h. After 4 h, cell culture media was removed and DMOS was added into each well, and then, the optical density was measured at 570 nm. The IC50 values were determined by GraphPad Prism 6.

[4] = tested on: p38 phosphorylation in RAW264.7 cells; experiment: Western blot of LPS-induced p38 phosphorylation; assay type: cell-based, Murine; conditions: RAW264.7, 5, 10, 20 μM, LPS 200 ng/mL
Description: The cell in 96-well plates were treated as described above and then stimulated with LPS (200 ng/mL) for 24 h. The cells were harvested and lysed in an extraction lysis buffer (Beyotime Biotechnology, Shanghai, China) containing protease inhibitors. The protein concentration was determined using a BCA protein assay kit (Thermo Scientific, 23227). The whole cell lysates were separated by 10% sodium dodecyl sulphate-polyacrylamide gel electrophoresis and transferred to a nitrocellulose membrane. Each membrane was incubated with Tris-buffered saline (pH 7.6, containing 0.05% Tween-20 and 5% non-fat milk). The nitrocellulose membrane was incubated with the primary antibody against p-JNK1/2, JNK1/2, p-p38, p38, p-ERK1/2, ERK1/2, IκBa, NF-κB p65, COX-2, iNOS or β-Actin (Abcam, Cambridge, UK). Immunoreactive bands were detected by incubating with horseradish peroxidase-conjugated secondary antibodies, and visualised using enhanced chemiluminescence reagents (Bio-Rad, Hercules, CA).
Figure 7. Compound 6n inhibited LPS-induced MAPK-signalling activation in RAW264.7 cells. RAW264.7 cells were co-incubated with 6n (5, 10, 20 μM) and LPS (200 ng/mL) for 30 min. The levels of p38, JNK, ERK1/2 and their phosphorylated forms were analysed using western blot.

[5] = target: T2, COX-2 (Homo sapiens, UniProt P35354); experiment: COX-2 inhibition assay in vitro (COX Inhibitor Screening Kit, fluorometric)
T2 sequence (P35354 18-604): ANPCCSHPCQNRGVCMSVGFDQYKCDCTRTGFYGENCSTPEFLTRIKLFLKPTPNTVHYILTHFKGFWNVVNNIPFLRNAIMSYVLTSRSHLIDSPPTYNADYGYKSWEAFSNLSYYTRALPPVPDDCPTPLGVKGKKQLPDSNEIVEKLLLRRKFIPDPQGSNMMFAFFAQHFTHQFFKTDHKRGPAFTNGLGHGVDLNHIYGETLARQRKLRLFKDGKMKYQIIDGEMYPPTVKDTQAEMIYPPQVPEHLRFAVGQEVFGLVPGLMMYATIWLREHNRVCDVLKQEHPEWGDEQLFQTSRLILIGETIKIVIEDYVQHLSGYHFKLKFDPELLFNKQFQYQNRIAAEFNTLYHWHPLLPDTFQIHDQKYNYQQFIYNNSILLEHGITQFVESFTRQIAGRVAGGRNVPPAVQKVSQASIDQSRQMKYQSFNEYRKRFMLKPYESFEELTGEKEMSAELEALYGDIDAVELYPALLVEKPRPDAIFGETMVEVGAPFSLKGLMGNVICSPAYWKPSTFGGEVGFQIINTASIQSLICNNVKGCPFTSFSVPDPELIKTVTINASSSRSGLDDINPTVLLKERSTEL

Chain of p38α MAPK (Q16539 whole entry): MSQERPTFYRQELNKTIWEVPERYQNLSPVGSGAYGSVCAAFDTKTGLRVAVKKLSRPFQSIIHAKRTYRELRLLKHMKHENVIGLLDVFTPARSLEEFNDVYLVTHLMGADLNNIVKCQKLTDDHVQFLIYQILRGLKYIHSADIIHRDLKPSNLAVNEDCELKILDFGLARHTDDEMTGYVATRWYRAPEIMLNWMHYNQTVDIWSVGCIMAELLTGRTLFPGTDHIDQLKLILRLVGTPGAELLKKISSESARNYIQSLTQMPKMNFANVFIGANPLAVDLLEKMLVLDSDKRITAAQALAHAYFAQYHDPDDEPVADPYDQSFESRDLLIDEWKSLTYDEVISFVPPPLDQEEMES

- IC50 [1]: 1950 ± 130 nM
- IC50 [2]: 12.6 ± 0.79 µM
- IC50 [5]: 36 ± 4 nM
- SI (COX-1/COX-2) ([5]; IC50 (COX-1)/IC50 (COX-2)): 349.72
SMILES: COc1ccccc1CN1CCN(C(=O)c2ccccc2C(C)=O)CC1 [Compound 6n, 1–(2-(4–(2-Methoxybenzyl)piperazine-1-carbonyl)phenyl)ethan-1-one]
- cytotoxicity [3]: no significant toxicity
- p38 phosphorylation [4]: significantly lower
